The text below walks through data of ChEMBL document CHEMBL1152907, “Synthesis and cytotoxicities of icogenin analogues with disaccharide residues” (Bioorg Med Chem Lett, 2009).

The structures appear in SMILES notation.

What all share (type): functional, cell-based
For one test, the system named is SW1990. The test can be described thus: Cytotoxicity against human SW1990 cells after 72 hrs by MTT assay. As to conditions: SW1990, 72 h. In general terms: Tetrazolium assays rely on reduction of a dye to a coloured formazan, in cell work by metabolically active cells.
The subject of another test is BXPC-3. As to the kind of experiment: Cytotoxicity against human BxPC3 cells after 72 hrs by MTT assay. As to conditions: BXPC-3, 72 h.
A further test concerns Capan-2. As to the kind of experiment: Cytotoxicity against human Capan2 cells after 72 hrs by MTT assay. As to conditions: Capan-2, 72 h.
The subject of another test is PANC-1. As to the kind of experiment: Cytotoxicity against human PANC1 cells after 72 hrs by MTT assay. As to conditions: PANC-1, 72 h.
Another test deals with A549. The test can be described thus: Cytotoxicity against human A549 cells after 72 hrs by MTT assay. As to conditions: A549, 72 h.
A further test concerns Bel-7402. As to the kind of experiment: Cytotoxicity against human Bel7402 cells after 72 hrs by MTT assay. As to conditions: Bel-7402, 72 h.
A further test deals with A2780. As to the kind of experiment: Cytotoxicity against human A2780 cells after 72 hrs by MTT assay. As to conditions: A2780, 72 h.
Another test deals with HCT-8. As to the kind of experiment: Cytotoxicity against human HCT8 cells after 72 hrs by MTT assay. As to conditions: HCT-8, 72 h.
Another test deals with MCF7. As to the kind of experiment: Cytotoxicity against human MCF7 cells after 72 hrs by MTT assay. As to conditions: MCF7, 72 h.
A further test concerns HL-60. The test can be described thus: Cytotoxicity against human HL60 cells after 72 hrs. As to conditions: HL-60, 72 h.

For `CO[C@]1(CC[C@@H](C)CO)O[C@H]2C[C@H]3[C@@H]4CC=C5C[C@@H](O[C@H]6O[C@H](CO)[C@@H](O)[C@H](O[C@@H]7O[C@H](CO)[C@@H](O)[C@H](O)[C@H]7O)[C@H]6O[C@@H]6O[C@@H](C)[C@H](O)[C@@H](O)[C@H]6O)CC[C@]5(C)[C@H]4CC[C@]3(C)[C@H]2[C@@H]1C`, the half-inhibitory concentration (IC50) – broadly, the midpoint of a concentration-inhibition curve – amounted to 900 nM in the test on SW1990; 1000 nM in the test on BXPC-3; 1100 nM in the test with Capan-2; 820 nM in the test with PANC-1; 890 nM with A549; 920 nM in the test with Bel-7402. Besides, the half-inhibitory concentration (IC50) with A2780 came out at 7.1 µM; with HCT-8, 1300 nM; in the test with MCF7, 1200 nM.

For `CO[C@]1(CC[C@@H](C)CO)O[C@H]2C[C@H]3[C@@H]4CC=C5C[C@@H](O[C@@H]6O[C@H](CO)[C@@H](O)[C@H](O)[C@H]6O[C@@H]6O[C@@H](C)[C@H](O)[C@@H](O)[C@H]6O)CC[C@]5(C)[C@H]4CC[C@]3(C)[C@H]2[C@@H]1C`, the IC50 with SW1990 came to 660 nM; in the test with BXPC-3, 1010 nM; in the test on Capan-2 it was 1070 nM; with PANC-1, 830 nM; in the test on A549 it was 1080 nM; with Bel-7402 it was 900 nM. Further, the IC50 in the test with A2780 was 7.2 µM; with HCT-8, 1020 nM; with MCF7 it was 2890 nM.

On to `CO[C@]1(CC[C@@H](C)CO)O[C@H]2C[C@H]3[C@@H]4CC=C5C[C@@H](O[C@H]6O[C@H](CO)[C@@H](O)[C@H](O)[C@H]6O[C@@H]6O[C@@H](C)[C@H](O)[C@@H](O)[C@H]6O)CC[C@]5(C)[C@H]4CC[C@]3(C)[C@H]2[C@@H]1C`, for which the IC50 with SW1990 was 730 nM; in the test with BXPC-3 it was 1040 nM; in the test on Capan-2 it was 1360 nM; in the test with PANC-1, 870 nM; with A549, 1480 nM; with Bel-7402, 940 nM. In addition, the IC50 in the test with A2780 amounted to 7.8 µM; in the test on HCT-8 it was 1260 nM; with MCF7, 2650 nM.

Consider `C[C@@H]1CC[C@@]2(OC1)O[C@H]1C[C@H]3[C@@H]4CC=C5C[C@@H](O[C@H]6O[C@H](CO)[C@@H](O)[C@H](O)[C@H]6O[C@@H]6O[C@@H](C)[C@H](O)[C@@H](O)[C@H]6O)CC[C@]5(C)[C@H]4CC[C@]3(C)[C@H]1[C@@H]2C`, for which the IC50 in the test with SW1990, with BXPC-3, with Capan-2, with PANC-1, with A549 and in the test with Bel-7402 was more than 10000 nM in each case. For the same molecule, the IC50 in the test with A2780 was more than 10 µM; in the test with HCT-8, more than 10000 nM; in the test with MCF7, more than 10000 nM.

For the molecule `C[C@@H]1CC[C@@]2(OC1)O[C@H]1C[C@H]3[C@@H]4CC=C5C[C@@H](O[C@@H]6O[C@H](CO)[C@@H](O[C@@H]7O[C@@H](C)[C@H](O)[C@@H](O)[C@H]7O)[C@H](O)[C@H]6O[C@@H]6O[C@@H](C)[C@H](O)[C@@H](O)[C@H]6O)CC[C@]5(C)[C@H]4CC[C@]3(C)[C@H]1[C@@H]2C` [DIOSCIN], the IC50 in the test with SW1990 amounted to 500 nM; with BXPC-3 it was 700 nM; with Capan-2, 50 nM; in the test on PANC-1, 810 nM; in the test with A549 it was 700 nM; in the test on Bel-7402, 230 nM. For the same molecule, the IC50 in the test on A2780 came out at 4.46 µM; in the test on HCT-8 it was 560 nM; with MCF7, 1030 nM.

As to `Nc1ccn([C@@H]2O[C@H](CO)[C@@H](O)C2(F)F)c(=O)n1` [GEMCITABINE], the concentration for half-maximal inhibition (IC50) stood at 1200 nM in the test with SW1990; 2900 nM in the test on BXPC-3; 1700 nM with Capan-2; 5600 nM with PANC-1; 1400 nM with A549; 840 nM with Bel-7402. In addition, the IC50 with A2780 worked out at 0.31 µM; in the test on HCT-8, 1740 nM; in the test with MCF7 it was 3280 nM.

Turning to `C[C@@H]1CC[C@@]2(OC1)O[C@H]1C[C@H]3[C@@H]4CC=C5C[C@@H](O[C@@H]6O[C@H](CO)[C@@H](O)[C@H](O[C@@H]7O[C@H](CO)[C@@H](O)[C@H](O)[C@H]7O)[C@H]6O[C@@H]6O[C@@H](C)[C@H](O)[C@@H](O)[C@H]6O)CC[C@]5(C)[C@H]4CC[C@]3(C)[C@H]1[C@@H]2C` [GRACILLIN], the IC50 in the test with SW1990 was found to be 1100 nM; in the test on BXPC-3, 1300 nM; in the test with Capan-2, 1300 nM; in the test with PANC-1, 700 nM; in the test with A549, 960 nM; in the test with Bel-7402, 1100 nM. In addition, the values for the half-maximal inhibitory concentration (IC50) in the test on A2780, in the test with HCT-8 and with MCF7 were 4.3 µM, 920 nM and 17500 nM, respectively.

As for `CO[C@]1(CC[C@@H](C)CO)O[C@H]2C[C@H]3[C@@H]4CC=C5C[C@@H](O[C@@H]6O[C@H](CO)[C@@H](O)[C@H](O[C@@H]7O[C@H](CO)[C@@H](O)[C@H](O)[C@H]7O)[C@H]6O[C@@H]6O[C@@H](C)[C@H](O)[C@@H](O)[C@H]6O)CC[C@]5(C)[C@H]4CC[C@]3(C)[C@H]2[C@@H]1C` [ICOGENIN(BETA)], the IC50 came to 2600 nM with HL-60; 1000 nM in the test on SW1990; 1100 nM in the test on BXPC-3; 1100 nM with Capan-2; 840 nM with PANC-1; 1860 nM in the test on A549. Also, the IC50 in the test with Bel-7402 was 860 nM; in the test with A2780, 0.92 µM; in the test with HCT-8 it was 930 nM; in the test with MCF7, 1070 nM.

For `C[C@@H]1CC[C@@]2(OC1)O[C@H]1C[C@H]3[C@@H]4CC=C5C[C@@H](O[C@@H]6O[C@H](CO)[C@@H](O)[C@H](O[C@@H]7O[C@@H](C)[C@H](O)[C@@H](O)[C@H]7O)[C@H]6O)CC[C@]5(C)[C@H]4CC[C@]3(C)[C@H]1[C@@H]2C` [POLYPHILLIN C], the IC50 is 5400 nM in the test on SW1990; more than 10000 nM in the test on BXPC-3; 2700 nM in the test with Capan-2; 11800 nM in the test on PANC-1; 2300 nM in the test with A549; more than 10000 nM with Bel-7402. The IC50 in the test with A2780 was more than 10 µM; with HCT-8, 4160 nM; in the test with MCF7 it was 3450 nM.
